Test [1] relates to goldfish retinal ganglion cells. The test is described as follows: Goldfish retinal ganglion cell culture, axon outgrowth bioassay. The test is classed as cell-based. Particulars: goldfish RGCs; for effect on axon growth induced by inosine: 2-DG 1 mM; for axon outgrowth in response to glucose/mannose analogs: analog alone (L-enantiomers 100 μM, D-glucosamine 25 μM, 2-deoxy-D-glucose 1 mM), FIG. 8a; for effect on glucose-induced axon outgrowth: glucose 10 μM (50 μM with late fraction), dBcAMP 1 mM, 3-O-MG 100:1, 2-DG 1 mM; for effect on axon growth induced by VE<3: FIG. 2; for axon outgrowth in response to monosaccharides: sugar alone, 50 or 100 μM, D-configuration, FIG. 7a; for axon outgrowth, extracellular 6-phosphate: FIG. 8f. How it is done: Goldfish retinal ganglion cells are prepared as described in PCT application serial no. PCT/US98/03001, the contents of which are incorporated herein by reference, and contacted with a hexose derivative such as mannose. The ability of the hexose derivative to stimulate axonal outgrowth from the goldfish retinal ganglion cells is monitored as described in PCT application serial no. PCT/US98/03001.
Goldfish retinal ganglion cell cultures. Mammalian AF-1 was initially characterized in bioassays using dissociated goldfish retinal ganglion cells (RGCs). In brief, Comet variety goldfish (Mt. Parnell Fisheries, PA) were dark-adapted, cooled to 4° C., and killed by cervical transection. Retinas were dissected and dissociated by incubation in papain followed by a series of trituration steps that result in an RGC-enriched cell suspension (Schwartz & Agronoff,; Schwalb et al., 1995). Approximately 500 RGCs per well were plated together with the experimental samples to be tested in defined, serum-free media containing Leibovitz' L15 media (Gibco BRL) plus N1 and N2 supplements (Bottenstein, Saito), antioxidants, and bovine serum albumin as described in detail elsewhere (Schwalb et al., 1995). In each experiment, 4 wells of each sample were distributed in 24-well plates in a blinded fashion so that the person evaluating axon outgrowth was unaware of the type of sample present in each well. Experiments included a positive control (previously validated goldfish AF-1 or inosine) and a negative control (defined media alone), likewise distributed on the plate in quadruplicate in a blinded fashion. After 6 days in culture at 21° C., axon outgrowth, operationally defined as the percent of RGCs that extended an axon≧5 cell diameters in length, was evaluated in approximately 150 consecutively encountered RGCs per well. […] Data are presented as normalized means ± SEM. All experiments were repeated at least 3 times.

For test [2], the system named is rat retinal ganglion cells. Kind of test: Rat retinal ganglion cell culture, axon outgrowth. It counts as cell-based. Particulars: rat RGCs; for axon outgrowth in the presence of forskolin: with forskolin, compared to forskolin alone, glucose up to 5 mM, mannose-6-phosphate up to 10 mM, FIG. 9a, 9c.
Description: Rat retinal ganglion cell cultures. Retinal ganglion cells were identified by retrograde labeling with Fluorogold (FG: Fluorochrome, Inc.). […] After allowing 7 days for FG to be retrogradely transported up the optic nerve, rats were killed, eyes were removed, and the retinas dissected. Retinas were dissociated with papain treatment followed by trituration. Mixed cultures containing 100-150 FG-labeled RGCs per well were maintained in 24 well plates in a defined, serum-free media (Minimal Essential Media containing NaHCO3,) at 37° C. at 5% CO2 for 3 days.
Where [3] appears, read: forskolin 10 μM, Rp-cAMPs 100 μM, MH 10 mM.
Where [4] appears, read: 6-TG 20 μM, NBTI 20 μM, forskolin 10 μM, Sp-cAMPs 150 μM, Rp-cAMPs 100 μM, H89 5 μM, FIG. 2, 4.

“Also recorded” adds a separate entry of the source.

For `O=CC[C@@H](O)[C@H](O)[C@H](O)CO` [2-deoxy-D-glucose], the “effect on axon growth induced by inosine” value in test [1] (6-TG 20 μM, NBTI 20 μM, listed as 2-DG) is “blocked the effects of both glucose and inosine; also recorded: also blocks the effect of inosine”. For the same compound, the “axon outgrowth in response to glucose/mannose analogs” value in test [1] is recorded as “ineffective; also recorded: No activity”. Moreover, the “effect on glucose-induced axon outgrowth” value in test [1] (forskolin 10 μM, Rp-cAMPs 100 μM, MH 10 mM, listed as 2-DG) is “blocked the effects of both glucose and inosine; also recorded: does block the effect of glucose”.

As to `CO[C@@H]([C@H](O)[C@H](O)CO)[C@@H](O)C=O` [3-O-methyl-D-glucose], the “axon outgrowth in response to glucose/mannose analogs” value in test [1] was “ineffective; also recorded: No activity”. For the same compound, in test [1] (setting [3]), the “effect on glucose-induced axon outgrowth” value is “fails to block the effect of glucose”.

For the compound `Nc1nc2nc[nH]c2c(=S)[nH]1` [6-TG, 6-thioguanine], in test [1] (6-TG 20 μM, NBTI 20 μM), the “effect on axon growth induced by inosine” value is listed as “only partially blocked; also recorded: only partially inhibited” and the “effect on axon growth induced by VE<3” value is “below baseline levels; also recorded: inhibited completely”. Further, the “effect on axon growth induced by AF-1” value in test [1] (setting [4]) is given as “below baseline levels”. Besides, the “effect on growth induced by VE<3 plus forskolin or Sp-cAMPs” value in test [2] (6-TG, FIG. 3a) is listed as “reduced growth; also recorded: strongly inhibited”.

`O=C[C@H](O)[C@H](O)[C@H](O)[C@H](O)CO` [D-allose]: the “axon outgrowth in response to monosaccharides” value in test [1] is reported as “failed to stimulate outgrowth”.

For the compound `O=C[C@@H](O)[C@H](O)[C@H](O)[C@H](O)CO` [D-altrose], in test [1], the “axon outgrowth in response to monosaccharides” value is on record as “failed to stimulate outgrowth”.

As for `O=C[C@H](O)[C@@H](O)[C@@H](O)[C@H](O)CO` [D-galactose], in test [1], the “axon outgrowth in response to monosaccharides” value is recorded as “failed to stimulate outgrowth”.

As to `N[C@H]1C(O)O[C@H](CO)[C@@H](O)[C@@H]1O` (stereo partly drawn) [D-glucosamine], the “axon outgrowth in response to glucose/mannose analogs” value in test [1] is reported as “strongly active”. For the same compound, the “axon outgrowth in the presence of forskolin” value (“axon outgrowth in the presence” for short) in test [2] is listed as “did not respond”.

As for `O=C[C@H](O)[C@@H](O)[C@H](O)[C@H](O)COP(=O)(O)O` [D-glucose-6-phosphate], the “axon outgrowth, extracellular 6-phosphate” value is given as “modest amount of outgrowth” in test [1] (100 μM) and “appreciable growth” in test [1] (1 mM). Further, the figures for the “axon outgrowth in response to glucose/mannose analogs” value in test [1] and in test [1] (listed as D-glc-6-P) were “relatively modest but statistically significant amount of outgrowth” and “small but statistically significant level of outgrowth”, respectively.

As to `O=C[C@H](O)[C@H](O)[C@@H](O)[C@H](O)CO` [D-gulose], the “axon outgrowth in response to monosaccharides” value in test [1] was “failed to stimulate outgrowth”. For the same compound, the “axon outgrowth in the presence” value in test [2] was “some activity”.

On to `N[C@@H]1C(O)O[C@H](CO)[C@@H](O)[C@@H]1O` (stereo partly drawn) [D-mannosamine], for which, in test [1], the “axon outgrowth in response to glucose/mannose analogs” value is given as “ineffective”.

On to `O=C[C@@H](O)[C@@H](O)[C@H](O)[C@H](O)COP(=O)(O)O` [D-mannose-6-phosphate], for which the “axon outgrowth, extracellular 6-phosphate” value in test [1] (100 μM) is “modest amount of outgrowth”; in test [1] (1 mM), “appreciable growth”. In addition, the “axon outgrowth in response to glucose/mannose analogs” value in test [1] was “relatively modest but statistically significant amount of outgrowth”; in test [1] (listed as D-man-6-P), “small but statistically significant level of outgrowth”. Besides, the “axon outgrowth in the presence” value in test [2] was “did not respond”.

In the case of `O=C[C@@H](O)[C@@H](O)[C@@H](O)[C@H](O)CO` [D-talose], the “axon outgrowth in response to monosaccharides” value in test [1] is on record as “failed to stimulate outgrowth”.

Consider `O=S(=O)(NCCNC/C=C/c1ccc(Br)cc1)c1cccc2cnccc12` [H89], for which the “effect on axon growth induced by AF-1” value in test [1] (setting [4]) is “not diminished”; in test [1] (6-TG 20 μM, NBTI 20 μM, forskolin 10 μM, Sp-cAMPs 150 μM, Rp-cAMPs 100 μM, H89 5 μM, FIG. 2, 4, listed as H-89), “did not reduce AF-1 induced growth”; in test [1] (H89 20 μM, FIG. 4), “diminished the effect of AF-1; also recorded: higher concentrations of H89 (20 μM) did”.

On to `CCCCCCOC(=O)[C@]1(O)C[C@@H]2O[C@@]1(C)n1c3ccccc3c3c4c(c5c6ccccc6n2c5c31)C(=O)NC4` [KT5720], for which the “effect on mannose-induced axon outgrowth” value is listed as “did not diminish the effect of mannose; also recorded: little effect on mannose-induced growth” in test [1] (KT5720 1 μM, MH 10 mM, dBcAMP, late fraction with 50 μM mannose) and “only a slight effect” in test [1] (KT5720 10 μM, FIG. 7f).

As to `O=C[C@H](O)[C@H](O)[C@@H](O)[C@@H](O)CO` [L-mannose], in test [1], the “axon outgrowth in response to glucose/mannose analogs” value is “completely inactive; also recorded: inactivity”. The “axon outgrowth in the presence” value in test [2] is on record as “inactivity”.

With `O=[N+]([O-])c1ccc(CSc2ncnc3c2ncn3[C@@H]2O[C@H](CO)[C@@H](O)[C@H]2O)cc1` [NBTI, 4-(nitrobenzyl-6-thioinosine)], in test [1] (6-TG 20 μM, NBTI 20 μM), the “effect on axon growth induced by inosine” value is listed as “effectively blocked; also recorded: blocked completely” and the “effect on axon growth induced by VE<3” value is listed as “very little effect; also recorded: not affected”. In test [1] (setting [4]), the “effect on axon growth induced by AF-1” value is “very little effect”.

Take `Nc1ncnc2c1ncn2[C@@H]1O[C@@H]2CO[P@@](O)(=S)O[C@H]2[C@H]1O` [Rp-cAMPs]: the “effect on axon growth induced by AF-1” value in test [1] (setting [4]) was “not diminished”; in test [1] (6-TG 20 μM, NBTI 20 μM, forskolin 10 μM, Sp-cAMPs 150 μM, Rp-cAMPs 100 μM, H89 5 μM, FIG. 2, 4, listed as Rp-cAMP-s) it was “did not reduce AF-1 induced growth”. For the same compound, the “block of glucose-induced outgrowth” value in test [1] (Rp-cAMPs 1 mM) came to 48%. In test [1] (setting [3]), the “effect on glucose-induced axon outgrowth” value is reported as “no effect on glucose-induced outgrowth”.

As to `CC(=O)N[C@H]1C(O)O[C@H](CO)[C@@H](O)[C@@H]1O` (some centres unmarked) [acetylglucosamine, N-acetyl-glucosamine], the “axon outgrowth in response to glucose/mannose analogs” value in test [1] was “ineffective”; in test [1] (listed as N-acetyl-glucosamine) it was “No activity”.

Take `O=C(CO)[C@@H](O)[C@H](O)[C@H](O)CO` [fructose]: the “axon outgrowth in response to monosaccharides” value in test [1] is on record as “failed to stimulate outgrowth”.

For `C[C@H](O)[C@@H](O)[C@@H](O)[C@H](O)C=O` [fucose, L-fucose], the “axon outgrowth in response to glucose/mannose analogs” value is given as “ineffective” in test [1] and “No activity” in test [1] (listed as L-fucose).

Turning to `COC(=O)C(C)=O` [methyl pyruvate], in test [1] (5 mM), the “effect on outgrowth of adding energy substrate to the media” value is listed as “had no effect”.

As to `CO[C@H]1O[C@H](CO)[C@@H](O)[C@H](O)[C@H]1O` [methyl-α-D-glucopyranoside], the “axon outgrowth in response to glucose/mannose analogs” value in test [1] is recorded as “ineffective”; in test [1] (listed as methyl-α-glucose pyranose), “No activity”.

Take `CO[C@@H]1O[C@H](CO)[C@@H](O)[C@H](O)[C@H]1O` [methyl-β-D-glucopyranoside]: the “axon outgrowth in response to glucose/mannose analogs” value in test [1] is recorded as “ineffective”; in test [1] (listed as methyl-β-glucose pyranose), “No activity”.

On to `O[C@H]1[C@H](O)[C@@H](O)[C@H](O)[C@@H](O)[C@H]1O` [myo-inositol], for which the “axon outgrowth in response to monosaccharides” value in test [1] was “failed to stimulate outgrowth”.

On to `O=C(CO)[C@H](O)[C@@H](O)[C@H](O)CO` [sorbose], for which the “axon outgrowth in response to monosaccharides” value in test [1] was “failed to stimulate outgrowth”.

For the origin of these results see patent publication US7666843B2, “Methods and compositions for treatment of neurological disorder” (Children's Medical Center Corporation, priority 2002, dated 2010).
